Assay results: US20240384268A1, “Oligonucleotides” (Hudson Institute of Medical Research, priority 2021, published 2024)

Biological target: T1, human TLR7 (Homo sapiens, UniProt Q9NYK1)
T1 construct: HA; host or cells: 293XL-hTLR7-HA (HEK293)
T1 sequence (Q9NYK1 27-1049): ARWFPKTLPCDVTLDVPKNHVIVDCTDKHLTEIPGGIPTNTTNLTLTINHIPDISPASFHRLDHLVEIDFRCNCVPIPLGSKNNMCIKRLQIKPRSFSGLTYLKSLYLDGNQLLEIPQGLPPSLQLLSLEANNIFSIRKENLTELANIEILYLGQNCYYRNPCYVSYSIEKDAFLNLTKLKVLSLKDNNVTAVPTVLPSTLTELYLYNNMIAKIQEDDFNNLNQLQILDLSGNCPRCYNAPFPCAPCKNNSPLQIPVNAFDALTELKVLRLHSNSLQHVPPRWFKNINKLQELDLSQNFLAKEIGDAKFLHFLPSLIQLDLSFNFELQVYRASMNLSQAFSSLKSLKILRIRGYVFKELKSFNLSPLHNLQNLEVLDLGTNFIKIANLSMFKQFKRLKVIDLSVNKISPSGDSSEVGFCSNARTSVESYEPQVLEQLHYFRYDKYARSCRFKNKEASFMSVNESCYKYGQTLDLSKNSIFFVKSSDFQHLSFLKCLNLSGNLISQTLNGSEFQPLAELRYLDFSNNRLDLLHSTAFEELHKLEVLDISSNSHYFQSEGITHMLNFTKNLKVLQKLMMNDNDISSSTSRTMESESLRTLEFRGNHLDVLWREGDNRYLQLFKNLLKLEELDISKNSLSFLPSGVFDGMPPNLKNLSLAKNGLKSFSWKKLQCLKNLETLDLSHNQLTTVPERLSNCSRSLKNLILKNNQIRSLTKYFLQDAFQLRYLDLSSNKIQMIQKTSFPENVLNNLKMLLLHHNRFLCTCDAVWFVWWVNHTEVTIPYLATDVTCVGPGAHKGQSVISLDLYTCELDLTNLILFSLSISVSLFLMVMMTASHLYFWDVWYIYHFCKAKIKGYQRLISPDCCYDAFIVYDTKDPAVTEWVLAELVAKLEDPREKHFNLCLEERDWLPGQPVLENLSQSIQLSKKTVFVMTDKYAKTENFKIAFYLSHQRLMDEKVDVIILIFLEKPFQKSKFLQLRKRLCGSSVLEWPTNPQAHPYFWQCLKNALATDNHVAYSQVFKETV
Experiment: HEK-TLR7 NF-κB-luciferase reporter, R848 stimulation
Assay type: cell-based
Settings: averaged NF-κB-Luciferase relative to R848 condition; for TLR7 100 nM: MOE-modified ASO at 100 nM; for TLR7 500 nM: MOE-modified ASO at 500 nM

| Sequence | TLR7 100 nM | TLR7 500 nM |
| --- | --- | --- |
| ACTGACTGTCTTGAGGGTTC (antisense; 2'-MOE modified, pattern not given here) [MB21D1-1483 MOE] | 0.627 | 0.299 |
| ATGTCCCCTGTTGACTGGTC (antisense; 2'-MOE modified, pattern not given here) [HPRT-489 MOE] | 0.426 | 0.224 |
| GAGGTCTTGGCTTCGTGGAG (antisense; 2'-MOE modified, pattern not given here) [MB21D1-523 MOE] | 0.419 | 0.095 |
| GATGGCCTCCCATCTCCTTC (antisense; 2'-MOE modified, pattern not given here) [HPRT-329 MOE] | 0.678 | 0.336 |
| TTCTGCAGCTTCCTTGTCCT (antisense; 2'-MOE modified, pattern not given here) [CTNN2B-2136 MOE] | 0.183 | 0.059 |
| TAGTCAAGGGCATATCCTAC (antisense; 2'-MOE modified, pattern not given here) [HPRT-732 MOE] | 0.423 | 0.191 |
| GCCGCTTTTCTGTCTGGTTC (antisense; 2'-MOE modified, pattern not given here) [CTNN2B-311 MOE] | 0.567 | 0.268 |
| TTGCCATGCTGGCTCGGACT (antisense; 2'-MOE modified, pattern not given here) [CAMSAP1-2584 MOE] | 0.445 | 0.138 |
| TGTGATGGCCTCCCATCTCC (antisense; 2'-MOE modified, pattern not given here) [HPRT-332 MOE] | 0.312 | 0.238 |
| GGTGGTCCACAACCCCTTTC (antisense; 2'-MOE modified, pattern not given here) [MB21D1-697 MOE] | 0.620 | 0.097 |
| ACAACCCCTTTCACCATCCC (antisense; 2'-MOE modified, pattern not given here) [MB21D1-689 MOE] | 0.593 | 0.533 |
| ACCCACTTGGCAGACCATCA (antisense; 2'-MOE modified, pattern not given here) [CTNN2B-1575 MOE] | 0.473 | 0.336 |
| ATGTCCCGCCACTGGATGCT (antisense; 2'-MOE modified, pattern not given here) [EGFR-727 MOE] | 0.397 | 0.171 |
| ATCCAACACTTCGTGGGGTC (antisense; 2'-MOE modified, pattern not given here) [HPRT-668 MOE] | 0.758 | 0.611 |
| TCGCACTTCAGTCTGAGCAG (antisense; 2'-MOE modified, pattern not given here) [MB21D1-719 MOE] | 0.574 | 0.241 |
| CTTACTTTCCGAGGTGTCCA (antisense; 2'-MOE modified, pattern not given here) [CAMSAP1-1739 MOE] | 0.588 | 0.336 |
| GTGTCCTTGCACGTGGCTTC (antisense; 2'-MOE modified, pattern not given here) [EGFR-1015 MOE] | 0.377 | 0.212 |
| TGTCCTTGCACGTGGCTTCG (antisense; 2'-MOE modified, pattern not given here) [EGFR-1014 MOE] | 0.029 | 0.057 |
| TTGCACACTTCGTACCCAAA (antisense; 2'-MOE modified, pattern not given here) [CAMSAP1-4915 MOE] | 0.418 | 0.233 |

| Sequence | TLR7 100 nM | TLR7 500 nM |
| --- | --- | --- |
| TGTCTTCATCGGCCCTGCCT (antisense; 2'-MOE modified, pattern not given here) [CAMSAP1-2112 MOE] | 0.396 | 0.185 |
| CTCTTGAAGCATCGTATCAC (antisense; 2'-MOE modified, pattern not given here) [CTNN2B-3648 MOE] | 0.609 | 0.341 |
| TTGGCTCGGCTTGCCTACTT (antisense; 2'-MOE modified, pattern not given here) [CAMSAP1-5594 MOE] | 0.523 | 0.204 |
| TAGGCACTTTGCCTCCTTCT (antisense; 2'-MOE modified, pattern not given here) [EGFR-2859 MOE] | 0.455 | 0.205 |
| ACAGTGTTGAGATACTCGGG (antisense; 2'-MOE modified, pattern not given here) [EGFR-3652 MOE] | 0.420 | 0.129 |
| CGTGTCTGGAAGCTTCCTTT (antisense; 2'-MOE modified, pattern not given here) [CTNN2B-808 MOE] | 0.541 | 0.350 |
| GGCATCCACCACGTCGTCCA (antisense; 2'-MOE modified, pattern not given here) [EGFR-3266 MOE] | 0.216 | 0.097 |
| CACCCACTTGGCAGACCATC (antisense; 2'-MOE modified, pattern not given here) [CTNN2B-1576 MOE] | 0.600 | 0.227 |
| GGAGCTTCGAGGCCCCAGGC (MOE modified, pattern not given here) [MB21D1-616 MOE] | 0.392 | 0.179 |
| GAACCACGTCTGCTCTAACA (antisense; 2'-MOE modified, pattern not given here) [CAMSAP1-1635 MOE] | 0.597 | 0.291 |
| AATCCGCCCAAAGGGAACTG (antisense; 2'-MOE modified, pattern not given here) [HPRT-1027 MOE] | 0.691 | 0.521 |
| CAGATAGCACCTTCAGCACT (antisense; 2'-MOE modified, pattern not given here) [CTNN2B-1294 MOE] | 0.497 | 0.254 |
| TCCAACACTTCGTGGGGTCC (antisense; 2'-MOE modified, pattern not given here) [HPRT-667 MOE] | 0.929 | 0.578 |
| CAAGGCCCTTCGCACTTCTT (antisense; 2'-MOE modified, pattern not given here) [EGFR-1225 MOE] | 0.587 | 0.336 |
| GCTTCAGGCGCTGCCTTGCC (antisense; 2'-MOE modified, pattern not given here) [CAMSAP1-2709 MOE] | 0.527 | 0.196 |
| GGTCCATACCCAAGGCATCC (antisense; 2'-MOE modified, pattern not given here) [CTNN2B-2446 MOE] | 0.364 | 0.096 |
| GCGTATTATAGCCGATTAAC (antisense; 2'-MOE modified, pattern not given here) [NC1 2′MOE] | 0.565 | 0.265 |
| GATGCTCCTCGGTCTCCCTT (antisense; 2'-MOE modified, pattern not given here) [CAMSAP1-1850 MOE] | 0.453 | 0.199 |
